The experiment addresses T1, human BK2 receptor (Homo sapiens, UniProt P30411).
T1 construct: expressed in transfected cells; host or cells: CHO-K1 (ATCC)
T1 sequence (P30411 1-391): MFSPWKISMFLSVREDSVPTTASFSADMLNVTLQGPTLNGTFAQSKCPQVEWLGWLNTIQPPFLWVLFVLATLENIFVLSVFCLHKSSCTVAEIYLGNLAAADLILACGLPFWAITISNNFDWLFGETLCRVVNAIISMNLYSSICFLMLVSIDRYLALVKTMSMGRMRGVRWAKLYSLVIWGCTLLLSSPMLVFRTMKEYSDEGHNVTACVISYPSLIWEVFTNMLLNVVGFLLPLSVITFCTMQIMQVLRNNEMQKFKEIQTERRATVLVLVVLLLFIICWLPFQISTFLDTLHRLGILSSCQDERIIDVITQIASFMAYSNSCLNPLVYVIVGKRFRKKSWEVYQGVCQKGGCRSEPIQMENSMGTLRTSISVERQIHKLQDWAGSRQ
The experiment in a line: Bradykinin 2 human receptor clone binding assay (inhibition of radio-labeled bradykinin binding). To be noted: compound resynthesized in pure form, read-out: IC50, BK binding inhibition. As to the method: Bradykinin 2 and Bradykinin 1 Human Receptor Clone Binding Assays
Human bradykinin B2 receptor was expressed in CHO-K1 (ATCC) cells. Preparation of membranes for binding assay was carried out by scraping cells from roller bottles in ice cold PBS and centrifuging at 1000× g, at 4° C. for 15 minutes. The supernatant was discarded and pellet resuspended in Buffer A consisting of 25 mM TES (pH 6.8) with 2 uM 1,10-phenanthroline, and centrifuged at 27,000× g for 15 min. The pellet was washed once using the same buffer and centrifugation parameters. The final pellet was resuspended in Buffer B (Buffer A with 2 uM captopril, 140 ug/ml bacitracin, 0.1% BSA), and stored in 1 ml aliquot, frozen at -70° C. until needed.
B2 Binding assays were performed by incubating human clone membrane solution with ^3 H-bradykinin (final concentration 0.3 nM) with or without test compounds in assay buffer (Buffer B with 1 mM dithiothreitol), at room temperature, for 45 minutes, at a final volume of 315 ul. All test compound dilutions were done in triplicate. Assays were harvested by quick filtration in a Tomtec Harvester 96, with ice-cold wash buffer consisting of 10 mM Tris/HCl, pH 7.5, 100 mM NaCl,0.02% BSA, onto Wallec printed glassfiber Filtermat "B", which had been pre-soaked with 0.1% PEI and previously air-dried. Filtermats were counted in 9.5 ml Wallec Beta-Plate Scint, in Wallec 1450 MicroBeta Counter.

The IC50 is the concentration at which inhibition is half-maximal. Regarding `N=C(N)NCCCCCCN1CC(=O)N(Cc2ccc3ccccc3c2)C(C2Cc3ccccc3C2)C1=O` (racemic) [Example 60], the IC50 stood at 4.1 µM.

`N=C(N)NCCCCCCCN1CC(=O)N(Cc2ccc(-c3ccccc3)cc2)C(C2Cc3ccccc3C2)C1=O` (racemic) [Example 61]: the IC50 stood at 13 µM.

For the origin of these results see patent US5811241A, “Method for preparing and identifying N-substitued 1,4-piperazines and N-substituted 1,4-piperazinediones” (Cortech, Inc., priority 1995, dated 1998).
